The target of one data set is 5-HT2A (Homo sapiens (Human), UniProt P28223). Nature of the data set: 5-HT2A [125I]DOI binding. The conditions noted are these: Table 3b; read-out: 5-HT2A [125I]DOI Ki ± SEM.
In data set [1] the target is T1, 5-HT1A (Homo sapiens (Human), UniProt P08908). The experiment in a line: 5-HT1A [35S]GTPγS binding functional assay. The conditions noted are these: Table 3b; read-out: 5-HT1A [35S]GTPγS binding Agonist EC50 ± SEM. The format is biochemical.
Data set [2] is described as follows: Phase I metabolic stability in rat liver microsomes. In kind it is in vitro ADME. The conditions noted are these: phase I metabolic stability in rat liver microsomes. The text has this: Rat Liver Microsome Metabolic Stability: Test compounds including 3-F analogues (C4a, C4b, C5a, C5b) and 29, 19 as well as the R-, S-enantiomers of C4a, C5a, 29 and 19 were screened for phase I metabolic stability in rat liver microsomes.
On the technique in general: Liver microsomes are vesicles of endoplasmic reticulum, rich in cytochrome P450 enzymes.

The next data set has as its target human D3R (Homo sapiens (Human), UniProt P35462). The experiment in a line: Radioligand competition binding, [3H]N-methylspiperone, HEK293 membranes expressing human D3R. The note with it: for Ki: read-out: D3R Ki ± SEM; for D2/D3: ratio of Ki values. Summed up:
(§1)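 HEK293 membranes (10 μg protein) incubated 1 h at room temperature in EBSS with 0.2 mM sodium metabisulfite, 0.4 nM [3H]N-methylspiperone and compound (10 μM to 10 pM, triplicate). Nonspecific binding defined with 10 μM butaclamol; GF/B filtration.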
In general terms: Displacement assays read how much labelled ligand stays bound in the presence of the test substance.

The target of another data set is human D2R (Homo sapiens (Human), UniProt P14416). The experiment in a line: Radioligand competition binding, [3H]N-methylspiperone, HEK293 membranes expressing human D2R. The conditions noted are these: read-out: D2R Ki ± SEM. In outline:
as §1

The target of a further data set is 5-HT2C (Homo sapiens (Human), UniProt P28335). The experiment in a line: 5-HT2C [125I]DOI binding. The note with it: Table 3b; read-out: 5-HT2C [125I]DOI Ki ± SEM.
5-HT2C, sequence (P28335 33-458, species assumed): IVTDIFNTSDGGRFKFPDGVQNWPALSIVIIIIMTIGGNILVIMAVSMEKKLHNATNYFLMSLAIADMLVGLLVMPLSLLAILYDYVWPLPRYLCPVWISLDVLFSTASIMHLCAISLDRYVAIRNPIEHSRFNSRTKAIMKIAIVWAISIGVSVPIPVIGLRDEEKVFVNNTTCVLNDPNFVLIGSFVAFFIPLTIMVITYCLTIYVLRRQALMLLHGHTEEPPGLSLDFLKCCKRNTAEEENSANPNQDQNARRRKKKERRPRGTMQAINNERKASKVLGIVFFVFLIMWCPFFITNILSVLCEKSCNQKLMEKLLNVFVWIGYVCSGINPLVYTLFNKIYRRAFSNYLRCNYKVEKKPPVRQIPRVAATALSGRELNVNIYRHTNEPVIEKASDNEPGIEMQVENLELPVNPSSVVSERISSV
The target in a further data set is human dopamine D3R (Homo sapiens (Human), UniProt P35462). The experiment in a line: D3R mitogenesis assay: stimulation or inhibition of quinpirole-stimulated mitogenesis in CHO cells. The format is cell-based. The note with it: Table 2b; inhibition of quinpirole-stimulated mitogenesis; read-out: Antagonist IC50 ± S.E.M.
human dopamine D3R, sequence (P35462 whole entry): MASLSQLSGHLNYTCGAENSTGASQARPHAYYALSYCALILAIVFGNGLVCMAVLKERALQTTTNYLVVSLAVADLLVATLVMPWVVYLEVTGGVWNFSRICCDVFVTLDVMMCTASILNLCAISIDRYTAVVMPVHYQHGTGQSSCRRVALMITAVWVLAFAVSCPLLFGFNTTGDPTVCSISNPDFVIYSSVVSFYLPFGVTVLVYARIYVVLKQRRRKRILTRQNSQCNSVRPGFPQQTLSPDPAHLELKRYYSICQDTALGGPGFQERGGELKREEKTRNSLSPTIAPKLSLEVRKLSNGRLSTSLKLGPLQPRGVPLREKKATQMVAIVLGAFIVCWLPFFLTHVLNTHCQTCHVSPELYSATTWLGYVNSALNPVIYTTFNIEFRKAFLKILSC
Data set [3] deals with T1, 5-HT1A. Nature of the data set: 5-HT1A [3H]-8-OH-DPAT binding. The conditions noted are these: Table 3b; read-out: 5-HT1A [3H]-8-OH-DPAT Ki ± SEM.
Data set [4] deals with Male Long-Evans rats. Nature of the data set: Hot plate test of oxycodone-induced antinociceptive response in rats. The format is in vivo, rat. The note with it: oxycodone in vehicle pretreated group. The protocol: Nociceptive tests were performed using a hot plate device (Model 39, IITC Life Science Inc., Woodland Hills, Calif., USA). The rat was put inside a transparent cage on the hot plate (52±0.2° C.). When thermal nociceptive signs such as licking, stomping the hind paw, or jumping from the plate appeared, the rat was immediately removed from the cage. […] The cut-off time for the test was 60 s to avoid tissue damage.
These experiments involved 8 groups of rats (n=8-9/group) in 2 series of repeated testing: 4 groups were used to test the effects of compound (±)-29 pretreatment on the time course of antinociception induced by oxycodone at a single dose, and another 4 groups were used to test the effects of compound (±)-29 pretreatment on the antinociception induced by various oxycodone doses. Each rat was first habituated to the testing environment for 1 h, followed by placement on the hot plate without treatment to obtain baseline response latencies. The groups in the time course test received baseline testing. Then, group 1 was pretreated with vehicle, and the other 3 groups were pretreated with a dose of compound (±)-29 (5, 15 or 25 mg/kg, i.p.). Fifteen min following the pretreatment, each rat was challenged with a saline injection (1 ml/kg) and, 30 min later, tested for the second time on the hot plate. On the next day, each group received the same pretreatment as on day 1, but challenged with oxycodone (2 mg/kg, i.p.), and each rat was then tested again at 30-, 60- and 120-min following oxycodone challenge. […] Data were calculated as % of maximum percentage effect (% MPE) using the formula: (treatment value−basal value)/(cutoff value−basal value)×100.
Methods: Compound (±)-29 was administered 15 minutes before saline or oxycodone challenge at 5 mg/kg, 15 mg/kg, and 25 mg/kg. […] The rat was then immediately removed from the hot plate and the time latency was recorded.

In data set [5] the test system is Male Long-Evans rats. The note with it: Rice et al, 2012; cited from earlier work.
Data set [6] deals with opioid-induced conditioned place preference. The conditions noted are these: Ashby et al, 2003; cited from earlier work.
The next data set relates to rhesus monkeys. Nature of the data set: Thermal tail withdrawal model of oxycodone antinociception in rhesus monkeys. In kind it is in vivo, rhesus monkey. The note with it: FIG. 6B.

The values that follow come from patent publication US11337971B2, “Dopamine D3 receptor selective antagonists/partial agonists and uses thereof” (THE UNITED STATES OF AMERICA, AS REPRESENTED BY THE …, priority 2018, dated 2022).

“Also recorded” adds a separate entry of the source. Where two headings read alike, the source gives them in different places.

human D3R, sequence (P35462 whole entry): as above
human D2R, sequence (P14416 whole entry): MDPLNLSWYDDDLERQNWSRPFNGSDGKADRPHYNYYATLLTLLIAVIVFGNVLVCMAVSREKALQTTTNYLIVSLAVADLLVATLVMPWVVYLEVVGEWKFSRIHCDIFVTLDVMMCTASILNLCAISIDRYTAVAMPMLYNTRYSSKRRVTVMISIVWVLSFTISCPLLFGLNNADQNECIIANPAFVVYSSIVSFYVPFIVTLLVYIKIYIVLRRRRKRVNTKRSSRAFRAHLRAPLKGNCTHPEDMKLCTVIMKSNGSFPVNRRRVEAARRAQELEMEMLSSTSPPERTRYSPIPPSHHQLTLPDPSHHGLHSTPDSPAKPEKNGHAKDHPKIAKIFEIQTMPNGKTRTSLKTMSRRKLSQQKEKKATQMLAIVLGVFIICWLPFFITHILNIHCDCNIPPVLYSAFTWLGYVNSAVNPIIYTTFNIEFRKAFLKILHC
T1 sequence (P08908 whole entry, species assumed): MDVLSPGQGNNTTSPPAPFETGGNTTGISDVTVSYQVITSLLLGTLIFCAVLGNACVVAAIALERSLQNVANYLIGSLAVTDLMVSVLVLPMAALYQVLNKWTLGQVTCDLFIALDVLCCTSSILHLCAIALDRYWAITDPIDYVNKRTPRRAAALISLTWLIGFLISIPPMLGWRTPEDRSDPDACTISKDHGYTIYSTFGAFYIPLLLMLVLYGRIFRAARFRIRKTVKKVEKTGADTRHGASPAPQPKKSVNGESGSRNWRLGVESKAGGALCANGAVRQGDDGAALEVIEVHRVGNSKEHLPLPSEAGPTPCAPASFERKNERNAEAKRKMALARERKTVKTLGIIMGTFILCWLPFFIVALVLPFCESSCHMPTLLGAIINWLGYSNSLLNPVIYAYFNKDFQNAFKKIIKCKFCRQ
5-HT2A, sequence (P28223 whole entry, species assumed): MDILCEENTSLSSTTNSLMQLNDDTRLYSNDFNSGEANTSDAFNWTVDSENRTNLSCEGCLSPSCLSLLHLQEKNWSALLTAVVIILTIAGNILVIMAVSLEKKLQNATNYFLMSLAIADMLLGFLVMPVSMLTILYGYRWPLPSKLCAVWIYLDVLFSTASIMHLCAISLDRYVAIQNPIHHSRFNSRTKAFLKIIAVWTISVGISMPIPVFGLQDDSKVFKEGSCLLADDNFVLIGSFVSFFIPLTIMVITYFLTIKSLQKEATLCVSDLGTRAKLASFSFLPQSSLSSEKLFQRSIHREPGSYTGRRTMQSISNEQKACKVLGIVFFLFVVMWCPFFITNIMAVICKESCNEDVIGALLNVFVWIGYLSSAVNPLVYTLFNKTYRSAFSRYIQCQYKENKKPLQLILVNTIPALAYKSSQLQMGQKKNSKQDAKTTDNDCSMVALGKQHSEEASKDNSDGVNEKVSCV

In the case of `CCc1cccc(N2CCN(CC(F)CCNC(=O)c3cc4ccccc4o3)CC2)c1Cl` (racemic) [Compound C5b, N-(4-(4-(2-chloro-3-ethylphenyl)piperazin-1-yl)-3-fluorobutyl)benzofuran-2-carboxamide], the Ki (in general, the dissociation constant of the complex between target and ligand, obtained from inhibition or displacement) at 5-HT2A turned out to be 336 ± 19 nM; on human D3R (Table 1B, [3H]-N-methylspiperone competition, 96-well plates), 2.09 ± 0.484 nM; at human D3R (Table 1C), 2.45 ± 0.51 nM; on human D2R (Table 1B, [3H]-N-methylspiperone competition, D2LR, 96-well plates) it was 295 ± 30.1 nM; at human D2R (Table 1C) it was 328 ± 33.5 nM; on 5-HT2C it was 464 ± 36 nM. Besides, the Ki at 5-HT1A [3] was determined as 117 ± 14 nM. In addition, the EC50 – broadly, the concentration giving half of the maximal effect – at 5-HT1A [1] came out at 351 ± 84 nM. Besides, the “% intact/parent remaining” value in data set [2] turned out to be 34%. Further, the D2/D3 is listed as 141 on human D3R (Table 1B) and 134 on human D3R (Table 1C). Further, the IC50 (usually the concentration needed to halve the response being measured) on human dopamine D3R was determined as 450 ± 160 nM.

As for `COc1ccc2c3c1O[C@H]1C(=O)CC[C@@]4(O)[C@@H](C2)N(C)CC[C@]314` [Oxycodone, reference compound], in the data set with Male Long-Evans rats [4], the “% MPE, hot plate” value is given as “significantly increased % MPE; also recorded: dose-dependently increased MPE %”.

On to `N#Cc1ccc2c(c1)CCN(CCC1CCC(NC(=O)c3ccnc4ccccc34)CC1)C2` (stereo not shown) [SB-277011A], for which the “CPA induced by naloxone-precipitated withdrawal” value with Male Long-Evans rats [5] is recorded as “significantly blocked CPA induced by naloxone-precipitated withdrawal”. In addition, the “opioid-induced conditioned place preference” value in [6] is listed as “significantly inhibiting opioid-induced conditioned place preference”.

`O=C1CC[C@@]2(O)[C@H]3Cc4ccc(O)c5c4[C@@]2(CCN3CC2CC2)[C@H]1O5` [naltrexone, reference compound]: in the data set on rhesus monkeys, the “effect on oxycodone antinociception” value was “deleterious effects on oxycodone antinociception”.
